In patent publication US9371331B2, “Modulators of methyl modifying enzymes, compositions and uses thereof” (Constellation Pharmaceuticals, Inc., priority 2012, dated 2016):
Read-outs that look alike come from different tables or passages of the source.

What was measured:
[1] = molecular target: EZH2 (rPRC2) (Homo sapiens, UniProt Q15910); assay: EZH2 assay: rPRC2, biotinylated oligonucleosomes, 3H SAM methyl transfer (FlashPlate scintillation); format: biochemical; conditions: biotinylated oligonucleosome substrate
Chain of EZH2 (rPRC2) (Q15910 whole entry): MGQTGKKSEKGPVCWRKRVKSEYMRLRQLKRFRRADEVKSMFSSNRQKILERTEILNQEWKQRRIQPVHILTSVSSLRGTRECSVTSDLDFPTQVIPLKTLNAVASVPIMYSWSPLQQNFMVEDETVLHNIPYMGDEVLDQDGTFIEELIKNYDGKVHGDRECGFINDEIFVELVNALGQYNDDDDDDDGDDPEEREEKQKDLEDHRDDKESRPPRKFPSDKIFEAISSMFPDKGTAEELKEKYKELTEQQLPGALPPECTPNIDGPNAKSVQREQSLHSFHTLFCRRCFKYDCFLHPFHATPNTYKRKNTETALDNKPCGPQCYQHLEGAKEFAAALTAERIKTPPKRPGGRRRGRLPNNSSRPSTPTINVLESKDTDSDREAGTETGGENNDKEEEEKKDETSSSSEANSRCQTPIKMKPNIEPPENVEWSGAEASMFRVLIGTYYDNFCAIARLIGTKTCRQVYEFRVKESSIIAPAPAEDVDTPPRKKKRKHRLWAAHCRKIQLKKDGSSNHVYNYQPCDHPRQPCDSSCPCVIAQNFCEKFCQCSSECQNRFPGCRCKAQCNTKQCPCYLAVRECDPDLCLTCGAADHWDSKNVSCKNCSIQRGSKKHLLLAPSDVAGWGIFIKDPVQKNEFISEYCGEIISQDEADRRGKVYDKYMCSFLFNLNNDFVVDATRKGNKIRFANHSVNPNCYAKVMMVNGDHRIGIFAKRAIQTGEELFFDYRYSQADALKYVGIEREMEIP
Chain of EZH2 (rPRC2) (O75530 whole entry partner): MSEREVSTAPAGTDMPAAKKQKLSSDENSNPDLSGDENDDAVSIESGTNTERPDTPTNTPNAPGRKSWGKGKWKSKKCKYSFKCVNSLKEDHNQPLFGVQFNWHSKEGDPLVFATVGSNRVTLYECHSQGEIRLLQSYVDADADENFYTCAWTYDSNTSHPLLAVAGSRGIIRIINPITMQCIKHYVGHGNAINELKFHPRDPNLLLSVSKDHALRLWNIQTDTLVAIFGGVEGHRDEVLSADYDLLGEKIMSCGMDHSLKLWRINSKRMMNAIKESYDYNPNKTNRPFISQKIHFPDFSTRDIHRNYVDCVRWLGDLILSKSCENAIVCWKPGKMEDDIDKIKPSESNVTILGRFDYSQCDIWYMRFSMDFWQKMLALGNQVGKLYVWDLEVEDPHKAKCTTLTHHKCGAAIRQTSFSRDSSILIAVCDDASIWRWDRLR
Chain of EZH2 (rPRC2) (Q15022 whole entry partner): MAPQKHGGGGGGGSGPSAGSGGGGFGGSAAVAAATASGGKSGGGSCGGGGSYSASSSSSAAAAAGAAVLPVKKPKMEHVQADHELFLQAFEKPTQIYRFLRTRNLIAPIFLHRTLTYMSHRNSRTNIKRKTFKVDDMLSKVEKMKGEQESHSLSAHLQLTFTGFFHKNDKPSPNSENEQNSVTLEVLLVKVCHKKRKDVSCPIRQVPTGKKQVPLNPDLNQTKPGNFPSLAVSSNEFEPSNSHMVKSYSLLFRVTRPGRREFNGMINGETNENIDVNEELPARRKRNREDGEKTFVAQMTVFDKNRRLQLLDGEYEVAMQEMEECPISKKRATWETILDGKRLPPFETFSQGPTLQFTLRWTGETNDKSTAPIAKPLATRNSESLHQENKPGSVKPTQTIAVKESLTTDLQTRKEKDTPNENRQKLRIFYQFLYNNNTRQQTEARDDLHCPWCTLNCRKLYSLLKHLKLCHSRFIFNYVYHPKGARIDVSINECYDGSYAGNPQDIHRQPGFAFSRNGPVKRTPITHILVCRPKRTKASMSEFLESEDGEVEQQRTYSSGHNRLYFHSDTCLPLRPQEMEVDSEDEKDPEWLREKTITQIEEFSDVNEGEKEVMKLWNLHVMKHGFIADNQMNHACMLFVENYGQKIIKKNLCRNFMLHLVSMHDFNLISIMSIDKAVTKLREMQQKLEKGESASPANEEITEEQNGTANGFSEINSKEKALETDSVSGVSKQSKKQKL

[2] = tested on: H3K27me3 mark in HeLa cells; assay: H3K27me3 MSD Hela Assay; format: cell-based; conditions: read-out: H3K27me3_MSD_HeLa_ (EC50)
Outline: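 HeLa cells treated with compound at various concentrations for 96 h at 37 °C, then lysed with high-salt extraction. H3K27me3 measured by MSD electrochemiluminescence immunoassay on total-H3 capture plates. Dose-dependent inhibition normalised to DMSO wells and fitted to curves.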

[3] = molecular target: Y641N EZH2 (Homo sapiens, UniProt Q15910, Y641N); assay: Y641N EZH2 assay: as EZH2 assay, with reconstituted H3K27Me2 oligonucleosomes as substrate; format: biochemical
Chain of Y641N EZH2 (Q15910 whole entry Y641N): as the sequence (Q15910 whole entry) above, with Y641N counted along it
Chain of Y641N EZH2 (O75530 whole entry partner): as the sequence (O75530 whole entry partner) above
Chain of Y641N EZH2 (Q15022 whole entry partner): as the sequence (Q15022 whole entry partner) above

[4] = EZH2 IC50, wild-type EZH2 (rPRC2)
[5] = Y641N EZH2 IC50, Y641N mutant EZH2, H3K27Me2 oligonucleosome substrate
[6] = wild-type EZH2 (rPRC2), read-out: EZH2 IC50
[7] = Y641N mutant EZH2, H3K27Me2 oligonucleosome substrate, read-out: Y641N EZH2 IC50
[8] = Homo sapiens, HeLa cells, MSD, 96 hours

Molecule	IC50 [1, 4]	EC50 ([2]; Homo sapiens, HeLa, 96 h)	IC50 [3, 5]	IC50 [1, 6]	IC50 [3, 7]	EC50 [2, 8]	EC50 ([2]; HeLa cells, MSD, 96 hours)
COCC(C)n1c(C)c(C(=O)NCc2c(OC)cc(C)[nH]c2=O)c2cccnc21 (single isomer, unassigned) [Compound 256, (R or S)-N-((4-methoxy-6-methyl-2-oxo-1,2-dihydropyridin-3-yl)methyl)-1-(1-methoxypropan-2-yl)-2-methyl-1H-pyrrolo[2,3-b]pyridine-3-carboxamide]	< 100 nM	400 to 2000 nM	100 to 1000 nM				
COc1cc(C)[nH]c(=O)c1CNC(=O)c1c(C)n(C(C)c2ccccc2)c2cnccc12 (single isomer, unassigned) [Compound 258, (R or S)-N-((4-methoxy-6-methyl-2-oxo-1,2-dihydropyridin-3-yl)methyl)-2-methyl-1-(1-phenylethyl)-1H-pyrrolo[2,3-c]pyridine-3-carboxamide]	< 100 nM	400 to 2000 nM	< 100 nM				
COc1cc(C)[nH]c(=O)c1CNC(=O)c1c(C)n(C(C)CS(C)(=O)=O)c2ccccc12 (single isomer, unassigned) [Compound 279, (R or S)-N-((4-methoxy-6-methyl-2-oxo-1,2-dihydropyridin-3-yl)methyl)-2-methyl-1-(1-(methylsulfonyl)propan-2-yl)-1H-indole-3-carboxamide]	< 100 nM	2000 to 10000 nM	100 to 1000 nM				
COc1cc(C)[nH]c(=O)c1CNC(=O)c1c(C)n([C@H](C)[C@H](OC)C2CC2)c2ncccc12 (single isomer, unassigned) [Compound 286, 1-((1R or S, 2R or S)-1-cyclopropyl-1-methoxypropan-2-yl)-N-((4-methoxy-6-methyl-2-oxo-1,2-dihydropyridin-3-yl)methyl)-2-methyl-1H-pyrrolo[2,3-b]pyridine-3-carboxamide]	< 100 nM	400 to 2000 nM	100 to 1000 nM				
COc1cc(C)[nH]c(=O)c1CNC(=O)c1c(C)n(C(C)C2CCOCC2)c2ncncc12 (single isomer, unassigned) [Compound 319, (R or S)-N-((4-methoxy-6-methyl-2-oxo-1,2-dihydropyridin-3-yl)methyl)-6-methyl-7-(1-(tetrahydro-2H-pyran-4-yl)ethyl)-7H-pyrrolo[2,3-d]pyrimidine-5-carboxamide]	< 100 nM	< 400 nM	< 100 nM				
COc1ccc2c(C(=O)NCc3c(OC)cc(C)[nH]c3=O)c(C)n(C(C)C3CCOCC3)c2c1 (single isomer, unassigned) [Compound 321, (R or S)-6-methoxy-N-((4-methoxy-6-methyl-2-oxo-1,2-dihydropyridin-3-yl)methyl)-2-methyl-(1-(tetrahydro-2H-pyran-4-yl)ethyl)-1 H-indole-3-carboxamide]	< 100 nM	< 400 nM	< 100 nM				
COc1cc(C)[nH]c(=O)c1CNC(=O)c1c(C)n(C(C)C2CCN(C(=O)OC(C)(C)C)CC2)c2ccccc12 (single isomer, unassigned) [Compound 327, (R or S)-tert-butyl 4-(1-(3-((4-methoxy-6-methyl-2-oxo-1,2-dihydropyridin-3-yl)methylcarbamoyl)-2-methyl-1H-indol-1-yl)ethyl)piperidine-1-carboxylate]	< 100 nM	< 400 nM	< 100 nM				
Cc1cc(C)c(CNC(=O)c2c(C)n([C@H](C)c3ccccc3)c3nc(N4CCOCC4)ncc23)c(O)n1 [Compound 143, (R)—N-((2-hydroxy-4,6-dimethylpyridin-3-yl)methyl)-6-methyl-2-morpholino-7-(1-phenylethyl)-7H-pyrrolo[2,3-d]pyrimidine-5-carboxamide]	< 100 nM	2000 to 10000 nM	1000 to 10000 nM				
Cc1cc(C)c(CNC(=O)c2c(C)n([C@H](C)c3ccccc3)c3nc(N)ncc23)c(O)n1 [Compound 144, (R)-2-amino-N-((2-hydroxy-4,6-dimethylpyridin-3-yl)methyl)-6-methyl-7-(1-phenylethyl)-7H-pyrrolo[2,3-d]pyrimidine-5-carboxamide]	< 100 nM	2000 to 10000 nM	100 to 1000 nM				
Cc1cc(C)c(CNC(=O)c2c(C)n(S(=O)(=O)c3ccccc3)c3ccccc23)c(O)n1 [Compound 145, N-((4,6-dimethyl-2-oxo-1,2-dihydropyridin-3-yl)methyl)-2-methyl-1-(phenylsulfonyl)-1H-indole-3-carboxamide]		2000 to 10000 nM		< 100 nM	100 to 1000 nM		
Cc1cc(C)c(CNC(=O)c2c(C)n([C@H](C)c3ccccc3)c3nc(N4CCNCC4)ncc23)c(O)n1 [Compound 169, (R)-N-((2-hydroxy-4,6-dimethylpyridin-3-yl)methyl)-6-methyl-7-(1-phenylethyl)-2-(piperazin-1-yl)-7H-pyrrolo[2,3-d]pyrimidine-5-carboxamide]				< 100 nM	100 to 1000 nM	> 10000 nM	
Cc1ccc(C)c(-n2c(C)c(C(=O)NCc3c(C)cc(C)[nH]c3=O)c3ccccc32)c1 [Compound 191, N-((4,6-dimethyl-2-oxo-1,2-dihydropyridin-3-yl)methyl)-1-(2,5-dimethylphenyl)-2-methyl-1H-indole-3-carboxamide]				< 100 nM	< 100 nM	2000 to 10000 nM	
COCC(C)n1c(C)c(C(=O)NCc2c(OC)cc(C)[nH]c2=O)c2ccccc21 (stereo not drawn) [Compound 219, N-((4-methoxy-6-methyl-2-oxo-1,2-dihydropyridin-3-yl)methyl)-1-(1-methoxypropan-2-yl)-2-methyl-1H-indole-3-carboxamide]	< 100 nM	400 to 2000 nM	< 100 nM				
COC(C)C(C)n1c(C)c(C(=O)NCc2c(C)cc(C)[nH]c2=O)c2cccnc21 (stereo not drawn) [Compound 241, N-((4,6-dimethyl-2-oxo-1,2-dihydropyridin-3-yl)methyl)-1-(3-methoxybutan-2-yl)-2-methyl-1H-pyrrolo[2,3-b]pyridine-3-carboxamide]	< 100 nM	400 to 2000 nM	100 to 1000 nM				
COc1cc(C)[nH]c(=O)c1CNC(=O)c1c(C)n(C(C)C(OC)C2CC2)c2ncccc12 (stereo not drawn) [Compound 283, 1-(1-cyclopropyl-1-methoxypropan-2-yl)-N-((4-methoxy-6-methyl-2-oxo-1,2-dihydropyridin-3-yl)methyl)-2-methyl-1H-pyrrolo[2,3-b]pyridine-3-carboxamide]	< 100 nM	400 to 2000 nM	100 to 1000 nM				
COC[C@@H](C)n1c(C)c(C(=O)NCc2c(OC)cc(C)[nH]c2=O)c2cncnc21 [Compound 303, (R)-N-((4-methoxy-6-methyl-2-oxo-1,2-dihydropyridin-3-yl)methyl)-7-(1-methoxypropan-2-yl)-6-methyl-7H-pyrrolo[2,3-d]pyrimidine-5-carboxamide]	< 100 nM	400 to 2000 nM	100 to 1000 nM				
COc1cc(C)[nH]c(=O)c1CNC(=O)c1c(C)n(C(C)C2CCCNC2)c2ccccc12 (stereo not drawn) [Compound 315, N-((4-methoxy-6-methyl-2-oxo-1,2-dihydropyridin-3-yl)methyl)-2-methyl-1-(1-(piperidin-3-yl)ethyl)-1H-indole-3-carboxamide]	< 100 nM	> 10000 nM	100 to 1000 nM				
COc1cc(C)[nH]c(=O)c1CNC(=O)c1c(C)n(C(C)C2CCCN(S(C)(=O)=O)C2)c2ccccc12 (stereo not drawn) [Compound 318]	< 100 nM	> 10000 nM	< 100 nM				
COc1cc(C)[nH]c(=O)c1CNC(=O)c1c(C)n(C2CCCC2)c2ccccc12 [Compound 324, 1-cyclopentyl-N-((4-methoxy-6-methyl-2-oxo-1,2-dihydropyridin-3-yl)methyl)-2-methyl-1H-indole-3-carboxamide]	< 100 nM	2000 to 10000 nM	100 to 1000 nM				
Cc1cc(C)c(CNC(=O)c2c(C)n([C@H](C)c3ccccc3)c3ncncc23)c(O)n1 [Compound 395, (R)—N-((2-hydroxy-4,6-dimethylpyridin-3-yl)methyl)-6-methyl-7-(1-phenylethyl)-7H-pyrrolo[2,3-d]pyrimidine-5-carboxamide]	< 100 nM	2000 to 10000 nM	100 to 1000 nM				
(±)-1-(1-(3-cyanophenyl)ethyl)-N-(4,6-dimethyl-2-oxo-1,2-dihydropyridin-3-yl)-2-methyl-1H-indole-3-carboxamide [Compound 175]				< 100 nM	< 100 nM		400 to 2000 nM
N-((4-methoxy-6-methyl-2-oxo-1,2-dihydropyridin-3-yl)methyl)-2-methyl-1-(1-(1-(methylsulfonyl)piperidin-3-yl)ethyl)-1H-indole-3-carboxamide [Compound 320]				< 100 nM	< 100 nM		400 to 2000 nM
